Assay results: patent US3957987A, “Compositions containing a carbonamidoquinoxaline-di-N-oxide and method of using same” (Bayer Aktiengesellschaft, priority 1971, dated 1976)
In brackets after ≈: the same amount, converted by molar mass.

Tests used:
[1] = system: Bordetella bronchiseptica; assay: Minimum inhibitory concentration, Bordetella bronchiseptica; type: cell-based
Mycobacterium species = assay: Minimum inhibitory concentration, Mycobacterium species; type: cell-based
Excerpt: (§1) As representative of the spectrum of antimicrobial activity for these compounds, the following representative minimum inhibitory concentrations shown on Tables A, B and C can be noted: […]

Clostridium tetani = assay: microbe, parasite or virus in culture; type: cell-based; conditions: read-out: minimum inhibitory concentration
Mycoplasma S6 = assay: Minimum inhibitory concentration, Mycoplasma S6; type: cell-based
Mycoplasma gran = assay: Minimum inhibitory concentration, Mycoplasma gran; type: cell-based
Aeromonas liquefaciens = assay: Minimum inhibitory concentration, Aeromonas liquefaciens; type: cell-based; conditions: Aeromonas hydrophila
[2] = system: Pasteurella multocida ATCC; assay: Minimum inhibitory concentration, Pasteurella multocida ATCC; type: cell-based
[3] = system: Alcaligenes faecalis ATCC; assay: Minimum inhibitory concentration, Alcaligenes faecalis ATCC; type: cell-based
Clostridium botulinum = assay: microbe, parasite or virus in culture; type: cell-based; conditions: read-out: minimum inhibitory concentration
[4] = system: Staphylococcus aureus 133; assay: Minimum inhibitory concentration in vitro, Staphylococcus aureus 133; type: cell-based
Excerpt: (§2) As representative of the spectrum of antimicrobial activity for these compounds, the following representative minimum inhibitory concentrations shown on Tables A, B and C can be noted:
(§3) Minimum Inhibitory Concentrations In Vitro, in μg/ml of Medium

Klebsiella 8085 = assay: Minimum inhibitory concentration in vitro, Klebsiella 8085; type: cell-based
Excerpt: as §2, §3

Streptococcus pyogenes = assay: Minimum inhibitory concentration in vitro, Streptococcus pyogenes; type: cell-based
Excerpt: as §2, §3

Klebsiella 63 = assay: Minimum inhibitory concentration in vitro, Klebsiella 63; type: cell-based
Excerpt: as §2, §3

Mycoplasma MS = assay: Minimum inhibitory concentration, Mycoplasma MS; type: cell-based
Excerpt: as §1

Chick Fattening Test = type: in vivo; conditions: for Relative Weight Increase (%) after 14 days / Relative Weight Increase (%) after 28 days: control 100.0
Excerpt: The use of these compounds as feed additives can be seen from the following feeding experiments (Table D).
Chicks in groups of 12 were kept in cages and supplied with water ad libitum and a complete chick feed into which was intimately mixed the indicated amount of the test compound.

Escherichia coli C 165 = assay: Minimum inhibitory concentration in vitro, Escherichia coli C 165; type: cell-based; conditions: C165
Excerpt: as §2, §3

Compound | MIC [1] [µg/mL] | MIC (Mycobacterium species) [µg/mL] | MIC (Clostridium tetani) [µg/mL] | MIC (Mycoplasma S6) [µg/mL] | MIC (Mycoplasma gran) [µg/mL] | MIC (Aeromonas liquefaciens) [µg/mL] | MIC [2] [µg/mL] | MIC [3] [µg/mL] | MIC (Clostridium botulinum) [µg/mL] | MIC [4] [µg/mL] | MIC (Klebsiella 8085) [µg/mL] | MIC (Streptococcus pyogenes) [µg/mL] | MIC (Mycoplasma MS) [µg/mL] | other results
O=C(NCCO)c1c(C=NNC(=O)N2CCOCC2)[n+]([O-])c2ccccc2[n+]1[O-] [Example 29] | 100 (≈ 247 µM) | 40 (≈ 98.9 µM) | 100 (≈ 247 µM) | 100 (≈ 247 µM) | 100 (≈ 247 µM) | 100 (≈ 247 µM) | 100 (≈ 247 µM) | 100 (≈ 247 µM) | 100 (≈ 247 µM) |  |  |  |  | 
COC(=O)NN=Cc1c(C(=O)N2CCCCC2)[n+]([O-])c2ccccc2[n+]1[O-] [Example 10] | 100 (≈ 268 µM) | 100 (≈ 268 µM) | 10 (≈ 26.8 µM) | 10 (≈ 26.8 µM) | 10 (≈ 26.8 µM) | 100 (≈ 268 µM) | 1 (≈ 2.68 µM) | 100 (≈ 268 µM) | 10 (≈ 26.8 µM) | 100 (≈ 268 µM) | 100 (≈ 268 µM) | 100 (≈ 268 µM) | 100 (≈ 268 µM) | MIC (Klebsiella 63): 100 µg/mL (≈ 268 µM)
CCCNC(=O)c1c(C=NO)[n+]([O-])c2ccccc2[n+]1[O-] [Example 23] | 100 (≈ 344 µM) | 100 (≈ 344 µM) | 100 (≈ 344 µM) | 100 (≈ 344 µM) | 1 (≈ 3.44 µM) | 100 (≈ 344 µM) | 100 (≈ 344 µM) | 100 (≈ 344 µM) | 1 (≈ 3.44 µM) |  |  |  | 100 (≈ 344 µM) | 
O=C(NN=Cc1c(C(=O)NCCO)[n+]([O-])c2ccccc2[n+]1[O-])OCCO [Example 28] | 100 (≈ 264 µM) |  | 100 (≈ 264 µM) | 100 (≈ 264 µM) | 100 (≈ 264 µM) | 100 (≈ 264 µM) | 100 (≈ 264 µM) | 100 (≈ 264 µM) | 100 (≈ 264 µM) |  |  |  |  | 
COC(=O)NN=Cc1c(C(=O)NC2CCCCC2)[n+]([O-])c2ccccc2[n+]1[O-] [Example 16] | 100 (≈ 258 µM) |  | 100 (≈ 258 µM) | 100 (≈ 258 µM) | 100 (≈ 258 µM) | 100 (≈ 258 µM) | 100 (≈ 258 µM) | 100 (≈ 258 µM) | 100 (≈ 258 µM) | 100 (≈ 258 µM) | 100 (≈ 258 µM) | 100 (≈ 258 µM) |  | 
CCN(CC)C(=O)c1c(C=NNC(=O)OC)[n+]([O-])c2ccccc2[n+]1[O-] [Example 11] | 100 (≈ 277 µM) | 100 (≈ 277 µM) | 10 (≈ 27.7 µM) | 10 (≈ 27.7 µM) | 10 (≈ 27.7 µM) | 100 (≈ 277 µM) | 1 (≈ 2.77 µM) | 100 (≈ 277 µM) | 10 (≈ 27.7 µM) | 100 (≈ 277 µM) | 100 (≈ 277 µM) | 100 (≈ 277 µM) | 100 (≈ 277 µM) | MIC (Klebsiella 63): 100 µg/mL (≈ 277 µM)
CCOC(=O)NN=Cc1c(C(=O)NCCO)[n+]([O-])c2ccccc2[n+]1[O-] [Example 27] | 100 (≈ 275 µM) |  | 100 (≈ 275 µM) | 100 (≈ 275 µM) | 100 (≈ 275 µM) | 100 (≈ 275 µM) | 100 (≈ 275 µM) | 100 (≈ 275 µM) | 100 (≈ 275 µM) |  | 100 (≈ 275 µM) | 100 (≈ 275 µM) |  | 
COC(=O)NN=Cc1c(C(=O)N2CCOCC2)[n+]([O-])c2ccccc2[n+]1[O-] [Example 21] | 100 (≈ 266 µM) | 100 (≈ 266 µM) | 100 (≈ 266 µM) | 1 (≈ 2.66 µM) | 0.1 (≈ 0.266 µM) | 1 (≈ 2.66 µM) | 10 (≈ 26.6 µM) | 100 (≈ 266 µM) | 1 (≈ 2.66 µM) |  |  |  | 10 (≈ 26.6 µM) | 
O=C(NCCO)c1c(C=NO)[n+]([O-])c2ccccc2[n+]1[O-] [Example 20] | 100 (≈ 342 µM) | 100 (≈ 342 µM) | 100 (≈ 342 µM) | 100 (≈ 342 µM) | 100 (≈ 342 µM) | 100 (≈ 342 µM) | 100 (≈ 342 µM) | 100 (≈ 342 µM) | 100 (≈ 342 µM) |  |  |  |  | Relative Weight Increase (%) after 14 days (Chick Fattening Test; Test 1, 50 ppm in feed): 107.4%; Absolute Weight Increase (g) of each animal after 14 days (Chick Fattening Test; Test 1, 50 ppm in feed, control 111.5): 119.9 g; Average Weight of each animal after 14 days (Chick Fattening Test; Test 1, 50 ppm in feed, control 170.8, initial weight 59.3 g): 179.2; Relative Weight Increase (%) after 28 days (Chick Fattening Test; Test 1, 50 ppm in feed): 104.1%; Absolute Weight Increase (g) of each animal after 28 days (Chick Fattening Test; Test 1, 50 ppm in feed, control 275.9): 287.3 g; Average Weight of each animal after 28 days (Chick Fattening Test; Test 1, 50 ppm in feed, control 335.2, initial weight 59.3 g): 346.6; Relative Weight Increase (%) after 14 days (Chick Fattening Test; Test 2, 10 ppm in feed): 104.5%; Absolute Weight Increase (g) of each animal after 14 days (Chick Fattening Test; Test 2, 10 ppm in feed, control 109.2): 114.2 g; Average Weight of each animal after 14 days (Chick Fattening Test; Test 2, 10 ppm in feed, control 168.3, initial weight 59.1 g): 173.3; Relative Weight Increase (%) after 28 days (Chick Fattening Test; Test 2, 10 ppm in feed): 102.2%; Absolute Weight Increase (g) of each animal after 28 days (Chick Fattening Test; Test 2, 10 ppm in feed, control 292.5): 299.2 g; Average Weight of each animal after 28 days (Chick Fattening Test; Test 2, 10 ppm in feed, control 351.6, initial weight 59.1 g): 358.3; Relative Weight Increase (%) after 14 days (Chick Fattening Test; Test 2, 20 ppm in feed): 106.8%; Absolute Weight Increase (g) of each animal after 14 days (Chick Fattening Test; Test 2, 20 ppm in feed, control 109.2): 116.7 g; Average Weight of each animal after 14 days (Chick Fattening Test; Test 2, 20 ppm in feed, control 168.3, initial weight 59.1 g): 175.8; Relative Weight Increase (%) after 28 days (Chick Fattening Test; Test 2, 20 ppm in feed): 102.8%; Absolute Weight Increase (g) of each animal after 28 days (Chick Fattening Test; Test 2, 20 ppm in feed, control 292.5): 300.9 g; Average Weight of each animal after 28 days (Chick Fattening Test; Test 2, 20 ppm in feed, control 351.6, initial weight 59.1 g): 360.0
COC(=O)NN=Cc1c(C(=O)NCCO)[n+]([O-])c2ccccc2[n+]1[O-] [Example 14] | 100 (≈ 286 µM) |  | 100 (≈ 286 µM) | 100 (≈ 286 µM) | 100 (≈ 286 µM) | 100 (≈ 286 µM) | 100 (≈ 286 µM) | 100 (≈ 286 µM) | 100 (≈ 286 µM) | 100 (≈ 286 µM) | 100 (≈ 286 µM) | 100 (≈ 286 µM) |  | 
CCOC(=O)NN=Cc1c(C(=O)NC)[n+]([O-])c2ccccc2[n+]1[O-] [Example 26] | 100 (≈ 300 µM) |  | 100 (≈ 300 µM) | 100 (≈ 300 µM) | 0.1 (≈ 0.3 µM) | 100 (≈ 300 µM) | 100 (≈ 300 µM) | 100 (≈ 300 µM) | 1 (≈ 3 µM) | 100 (≈ 300 µM) | 10 (≈ 30 µM) | 100 (≈ 300 µM) | 100 (≈ 300 µM) | MIC (Escherichia coli C 165): 100 µg/mL (≈ 300 µM); MIC (Klebsiella 63): 100 µg/mL (≈ 300 µM)
CC(C)NC(=O)c1c(C=NO)[n+]([O-])c2ccccc2[n+]1[O-] [Example 24] | 100 (≈ 344 µM) | 100 (≈ 344 µM) | 100 (≈ 344 µM) | 100 (≈ 344 µM) | 1 (≈ 3.44 µM) | 100 (≈ 344 µM) | 100 (≈ 344 µM) | 100 (≈ 344 µM) | 1 (≈ 3.44 µM) |  |  |  | 100 (≈ 344 µM) | 
CNC(=O)c1c(C=NNC(=O)OCCO)[n+]([O-])c2ccccc2[n+]1[O-] [Example 25] | 100 (≈ 286 µM) |  | 100 (≈ 286 µM) | 100 (≈ 286 µM) | 1 (≈ 2.86 µM) | 100 (≈ 286 µM) | 100 (≈ 286 µM) | 100 (≈ 286 µM) | 1 (≈ 2.86 µM) |  |  |  | 100 (≈ 286 µM) | 
CCNC(=O)c1c(C=NO)[n+]([O-])c2ccccc2[n+]1[O-] [Example 22] | 100 (≈ 362 µM) | 100 (≈ 362 µM) | 100 (≈ 362 µM) | 10 (≈ 36.2 µM) | 10 (≈ 36.2 µM) | 0.1 (≈ 0.362 µM) | 10 (≈ 36.2 µM) | 100 (≈ 362 µM) | 1 (≈ 3.62 µM) |  |  |  | 100 (≈ 362 µM) | 
